Laboratory results reported in article PMC8151276, “An Integrated Approach toward NanoBRET Tracers for Analysis of GPCR Ligand Engagement” (Molecules, 2021).

Tests used:
[1] = system: alpha-Adrenergic receptors; test: Competitive displacement of Clozapine-a-2-NB590 by unmodified scaffold (NanoBRET); type: binding, human; settings: for NanoBRET Fold Response, other tracers/XAC (unmodified): displaced by unmodified XAC; for Interaction verified via competitive displacement of tracer: tracer Clozapine-a-2-NB590, alpha-Adrenergic receptors
Protocol: Finally, we opted to compare the machine learning predictions for the 17 scaffolds to the empirical NanoBRET evaluations across 36 GPCR families investigated by both strategies (Figure 7). […] At the same time, empirical NanoBRET results for each scaffold were consolidated to include results for all relevant fluorescent tracer candidates screened at either 1 μM or 0.1 μM tracer concentrations. […] These additional verifications were incorporated to the comparative analysis and are also included in the compiled screening results (Supplementary Materials Excel spreadsheet).

[2] = system: 5-Hydroxytryptamine receptors; test: as above; type: binding, human; settings: tracer Clozapine-a-2-NB590
Text: (§1) Finally, we opted to compare the machine learning predictions for the 17 scaffolds to the empirical NanoBRET evaluations across 36 GPCR families investigated by both strategies (Figure 7). The highest correlation between model-predicted and NanoBRET-confirmed interactions was found using minimal thresholds of ≥4% classification probability and ≥1.5-fold response, respectively (Figure S11). These thresholds provided the best balance between model accuracy and a low percentage of false predictions. Accordingly, machine learning predictions for all unmodified scaffolds were compiled (Figure S6) and those above the minimum 4% probability threshold were classified as positive interactions (Figure 7A). At the same time, empirical NanoBRET results for each scaffold were consolidated to include results for all relevant fluorescent tracer candidates screened at either 1 μM or 0.1 μM tracer concentrations. […] One caveat comparing model predictions to empirical NanoBRET evaluations is their use of unmodified versus fluorescently modified scaffolds, respectively. Therefore, model predictions not verified by BRET could in part be the result of fluorophore interference with binding interactions. […]

Dopamine receptors = test: as above; type: binding, human; settings: tracer Clozapine-a-2-NB590
Text: as §1

ADRB3 = target: T1, ADRB3 (Homo sapiens, UniProt P13945); test: NanoBRET screen HiBiT-ADRB3 in HEK293; type: binding; settings: ADRB3
T1 construct: purchased Promega (in-house HiBiT-GPCR construct library, NanoBRET)
Protocol: (§2) Each tracer candidate was screened across the entire library of HiBiT-GPCR constructs using NanoBRET as the detection modality. As depicted in Figure 4A, the specificity of interactions was evaluated through decrease in BRET due to competitive displacement of a bound tracer by excess parental compound. Each tracer was analyzed for binding to each HiBiT-GPCR fusion in the absence and in the presence of competing parental compound. Briefly, HEK293 cells were transfected with HiBiT-GPCR constructs diluted into promoterless DNA to reduce expression and maximize translocation to the cell surface. Each tracer candidate was then screened at concentrations of 1 μM and 0.1 μM across cells expressing these fusions. Cells were treated for 1.5 h with tracer either alone or in the presence of 20 μM competing parental compound (i.e., control). BRET was measured upon addition of purified LgBiT and subsequent complementation with HiBiT genetically fused to a GPCR. The specificity of interactions was assessed through a decrease in BRET signal due to competitive displacement of the bound tracer. To further gauge the robustness of these interactions, the fold response over the control (i.e., BRETtracer/BRETcontrol) was calculated. We chose a 1.5-fold response, which translates to ≥7-fold signal over noise as the minimal threshold required to score an interaction as positive.
(§3) HiBiT-GPCR DNA constructs were diluted in 10 mM Tris pH 8 to a final concentration of 0.01 μg/μL, arrayed in 96-well plates and stored at −20 °C. For transfection, HEK293 cells were suspended in Opti-MEM (without phenol red) supplemented with 2% fetal bovine serum (Seradigm) and 100 units/mL penicillin–streptomycin (Gibco) at a final concentration of 220,000 cells/mL and dispensed into white 96-well plates at 90 μL/well. Subsequent transfections and screens were carried using an Agilent Bravo Automated Liquid Handling Platform. First, the 96-well HiBiT DNA arrays were diluted 25-fold in Opti-MEM (without serum or phenol red) to a final concentration of 0.0004 μg/μL and 20 μL of the diluted DNAs were transferred into new 96-well plates. Next, promoterless carrier DNA (1 μg/μL) was diluted 25-fold (0.04 μg/μL) and then dispensed into the diluted arrays at 20 μL/well. Following brief mixing, Viafect transfection reagent (Promega) diluted 16-fold into Opti-MEM was dispensed into the plates at 40 μL/well. After mixing by pipetting, plates were incubated for 10 min on the pipetting station deck. The DNA-transfection reagent complexes were then added to plates containing cells. To facilitate the screen, 10 μL of DNA-transfection reagent complexes were added in duplicates to the top 4 and bottom 4 rows, resulting in two identical 48-well arrays per plate. Plates with transfected cells were incubated for 18–20 h at 37 °C/5% CO2. A screen of each tracer across the entire library using two different concentrations requires duplicate plates of transfected cells. Depending on the number of tracers being screened, transfections can be scaled up using the same ratios. The next day, for each tracer, four 20× screening solutions in tracer dilution buffer (Promega) were prepared: two duplicates at final concentration of 20 μM and two duplicates at a final concentration of 2 μM. […] The four resulting solutions were diluted 4-fold in Opti-MEM without serum or phenol red to generate 5× solutions (5 µM and 0.5 µM tracer +/− 100 μM competing compound). To screen the library, a BioTek MultiFlo FX liquid dispenser was used to dispense 22.5 µL of tracer solution to the top 4 rows and 22.5 µL tracer + competing compound solution to the 4 bottom rows. Plates were briefly mixed on an orbital shaker and incubated for 1.5 h at room temperature. […] Plates were briefly mixed on an orbital shaker and incubated for 15 min to allow complementation.

OPRK1 = target: T2, OPRK1 (Homo sapiens, UniProt P41145); test: NanoBRET screen HiBiT-OPRK1 in HEK293; type: binding; settings: OPRK1
T2 construct: purchased Promega (in-house HiBiT-GPCR construct library, NanoBRET)
Protocol: as §2, with “positive. […]. Below we highlight the screening results obtained for our exemplary fluorescent tracers based on Clozapine, Amitriptyline and AZD1283.” for “positive.”
HiBiT-GPCR DNA constructs were diluted in 10 mM Tris pH 8 to a final concentration of 0.01 μg/μL, arrayed in 96-well plates and stored at −20 °C. For transfection, HEK293 cells were suspended in Opti-MEM (without phenol red) supplemented with 2% fetal bovine serum (Seradigm) and 100 units/mL penicillin–streptomycin (Gibco) at a final concentration of 220,000 cells/mL and dispensed into white 96-well plates at 90 μL/well. Subsequent transfections and screens were carried using an Agilent Bravo Automated Liquid Handling Platform. First, the 96-well HiBiT DNA arrays were diluted 25-fold in Opti-MEM (without serum or phenol red) to a final concentration of 0.0004 μg/μL and 20 μL of the diluted DNAs were transferred into new 96-well plates. Next, promoterless carrier DNA (1 μg/μL) was diluted 25-fold (0.04 μg/μL) and then dispensed into the diluted arrays at 20 μL/well. Following brief mixing, Viafect transfection reagent (Promega) diluted 16-fold into Opti-MEM was dispensed into the plates at 40 μL/well. After mixing by pipetting, plates were incubated for 10 min on the pipetting station deck. The DNA-transfection reagent complexes were then added to plates containing cells. To facilitate the screen, 10 μL of DNA-transfection reagent complexes were added in duplicates to the top 4 and bottom 4 rows, resulting in two identical 48-well arrays per plate. Plates with transfected cells were incubated for 18–20 h at 37 °C/5% CO2. A screen of each tracer across the entire library using two different concentrations requires duplicate plates of transfected cells. Depending on the number of tracers being screened, transfections can be scaled up using the same ratios. The next day, for each tracer, four 20× screening solutions in tracer dilution buffer (Promega) were prepared: two duplicates at final concentration of 20 μM and two duplicates at a final concentration of 2 μM. A competing unmodified compound was added to one of each duplicate at a final concentration of 400 μM. The four resulting solutions were diluted 4-fold in Opti-MEM without serum or phenol red to generate 5× solutions (5 µM and 0.5 µM tracer +/− 100 μM competing compound). To screen the library, a BioTek MultiFlo FX liquid dispenser was used to dispense 22.5 µL of tracer solution to the top 4 rows and 22.5 µL tracer + competing compound solution to the 4 bottom rows. Plates were briefly mixed on an orbital shaker and incubated for 1.5 h at room temperature. […]

ADRB1 = target: T3, ADRB1 (Homo sapiens, UniProt P08588); test: NanoBRET screen HiBiT-ADRB1 in HEK293; type: binding; settings: ADRB1
T3 construct: purchased Promega (in-house HiBiT-GPCR construct library, NanoBRET)

OPRM1 = target: T4, OPRM1 (Homo sapiens, UniProt P35372); test: NanoBRET screen HiBiT-OPRM1 in HEK293; type: binding; settings: OPRM1
T4 construct: purchased Promega (in-house HiBiT-GPCR construct library, NanoBRET)
Protocol: as §2, §3

OPRD1 = target: T5, OPRD1 (Homo sapiens, UniProt P41143); test: NanoBRET screen HiBiT-OPRD1 in HEK293; type: binding; settings: OPRD1
T5 construct: purchased Promega (in-house HiBiT-GPCR construct library, NanoBRET)
Protocol: as §2, §3

ADRB2 = target: T6, ADRB2 (Homo sapiens, UniProt P07550); test: NanoBRET screen HiBiT-ADRB2 in HEK293; type: binding; settings: ADRB2, other tracers/Quetiapine (unmodified)
T6 construct: purchased Promega (in-house HiBiT-GPCR construct library, NanoBRET)
Protocol: as §2, §3

[3] = other tracers/Tolterodine (unmodified), 0.1μM
[4] = other tracers/Tolterodine (unmodified), 1μM
[5] = other tracers/Quetiapine (unmodified), 0.1μM
[6] = other tracers/Quetiapine (unmodified), 1μM

T2 sequence (P41145 whole entry): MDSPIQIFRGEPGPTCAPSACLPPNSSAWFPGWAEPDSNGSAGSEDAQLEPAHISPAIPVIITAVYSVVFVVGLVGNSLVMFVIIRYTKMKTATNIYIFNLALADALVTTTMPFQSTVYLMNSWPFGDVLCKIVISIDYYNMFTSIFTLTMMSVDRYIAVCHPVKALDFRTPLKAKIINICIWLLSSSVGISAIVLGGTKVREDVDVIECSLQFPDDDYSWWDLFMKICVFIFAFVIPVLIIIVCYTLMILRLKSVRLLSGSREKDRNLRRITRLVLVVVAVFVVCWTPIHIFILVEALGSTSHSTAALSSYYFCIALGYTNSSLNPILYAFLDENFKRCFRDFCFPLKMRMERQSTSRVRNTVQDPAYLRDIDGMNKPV
T5 sequence (P41143 whole entry): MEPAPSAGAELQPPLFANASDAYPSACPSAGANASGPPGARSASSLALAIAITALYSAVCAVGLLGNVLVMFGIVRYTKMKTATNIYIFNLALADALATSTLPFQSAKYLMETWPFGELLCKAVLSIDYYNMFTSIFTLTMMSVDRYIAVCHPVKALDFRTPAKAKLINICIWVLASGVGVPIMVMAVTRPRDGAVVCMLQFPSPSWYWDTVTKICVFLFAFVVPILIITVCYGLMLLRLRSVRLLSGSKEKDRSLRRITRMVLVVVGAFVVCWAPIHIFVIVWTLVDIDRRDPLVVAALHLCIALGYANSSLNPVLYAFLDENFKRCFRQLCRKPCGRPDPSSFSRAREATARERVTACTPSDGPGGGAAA
T4 sequence (P35372 whole entry): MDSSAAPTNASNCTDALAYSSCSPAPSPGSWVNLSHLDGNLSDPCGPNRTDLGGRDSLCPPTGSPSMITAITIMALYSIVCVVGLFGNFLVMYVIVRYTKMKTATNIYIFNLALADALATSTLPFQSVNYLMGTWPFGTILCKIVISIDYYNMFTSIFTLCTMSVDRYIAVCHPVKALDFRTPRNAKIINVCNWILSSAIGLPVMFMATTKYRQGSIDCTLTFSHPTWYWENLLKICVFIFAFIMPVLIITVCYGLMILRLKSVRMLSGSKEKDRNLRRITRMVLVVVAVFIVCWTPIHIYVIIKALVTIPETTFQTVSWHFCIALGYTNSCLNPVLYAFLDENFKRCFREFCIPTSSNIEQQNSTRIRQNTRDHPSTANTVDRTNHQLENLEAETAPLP
T1 sequence (P13945 whole entry): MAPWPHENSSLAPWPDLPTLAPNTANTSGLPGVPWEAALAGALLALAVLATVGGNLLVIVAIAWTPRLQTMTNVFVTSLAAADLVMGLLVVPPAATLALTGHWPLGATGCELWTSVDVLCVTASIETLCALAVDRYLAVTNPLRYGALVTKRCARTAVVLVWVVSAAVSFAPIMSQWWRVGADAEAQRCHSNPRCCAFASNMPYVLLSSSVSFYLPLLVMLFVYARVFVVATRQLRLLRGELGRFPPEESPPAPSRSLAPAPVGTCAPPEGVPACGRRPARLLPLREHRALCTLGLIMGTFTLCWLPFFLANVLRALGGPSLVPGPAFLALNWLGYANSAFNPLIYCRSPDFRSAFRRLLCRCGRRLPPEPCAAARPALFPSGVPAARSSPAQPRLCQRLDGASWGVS
T3 sequence (P08588 whole entry): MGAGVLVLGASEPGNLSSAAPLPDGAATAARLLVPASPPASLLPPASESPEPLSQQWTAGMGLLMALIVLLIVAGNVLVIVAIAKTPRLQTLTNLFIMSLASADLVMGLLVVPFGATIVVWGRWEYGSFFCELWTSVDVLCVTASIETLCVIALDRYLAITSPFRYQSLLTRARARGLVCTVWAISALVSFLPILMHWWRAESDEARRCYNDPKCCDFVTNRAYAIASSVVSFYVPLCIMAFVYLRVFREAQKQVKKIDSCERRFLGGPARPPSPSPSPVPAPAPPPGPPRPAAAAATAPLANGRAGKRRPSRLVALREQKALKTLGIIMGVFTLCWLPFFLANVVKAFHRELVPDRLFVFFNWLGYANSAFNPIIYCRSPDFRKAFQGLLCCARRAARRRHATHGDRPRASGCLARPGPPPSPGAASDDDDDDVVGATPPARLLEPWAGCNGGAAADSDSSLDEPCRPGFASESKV
T6 sequence (P07550 whole entry): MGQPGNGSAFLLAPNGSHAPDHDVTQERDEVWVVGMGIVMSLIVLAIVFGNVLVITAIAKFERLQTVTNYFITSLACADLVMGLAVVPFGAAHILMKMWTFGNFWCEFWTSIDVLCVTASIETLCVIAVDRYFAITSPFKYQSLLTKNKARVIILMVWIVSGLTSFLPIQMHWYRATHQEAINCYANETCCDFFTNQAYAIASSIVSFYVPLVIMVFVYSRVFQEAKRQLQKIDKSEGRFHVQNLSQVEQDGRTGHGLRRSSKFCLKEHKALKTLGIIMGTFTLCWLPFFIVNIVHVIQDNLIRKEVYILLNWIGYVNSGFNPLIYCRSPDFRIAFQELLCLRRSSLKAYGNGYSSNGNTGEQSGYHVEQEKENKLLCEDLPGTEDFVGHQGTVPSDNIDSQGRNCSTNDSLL

Q: For `CCCn1c(=O)c2[nH]c(-c3ccc(OCC(=O)NCCN)cc3)nc2n(CCC)c1=O` [XAC (unmodified)], which “NanoBRET Fold Response, other tracers/XAC (unmodified)” value ([1]; ADRA1A, other tracer 0.1μM) is on record?
A: 3.51

Q: What about the “NanoBRET Fold Response, other tracers/XAC (unmodified)” value ([1]; ADRA1A, other tracer 1μM) of the same molecule?
A: 1.56

Q: And the “NanoBRET Fold Response, other tracers/XAC (unmodified)” value ([1]; ADRA1B, other tracer 0.1μM)?
A: 1.61

Q: And the “NanoBRET Fold Response, other tracers/XAC (unmodified)” value ([1]; ADRA1B, other tracer 1μM)?
A: 1.32

Q: What about the “NanoBRET Fold Response, other tracers/XAC (unmodified)” value ([1]; ADRA2A, other tracer 0.1μM) of the same molecule?
A: 1.12

Q: And the “NanoBRET Fold Response, other tracers/XAC (unmodified)” value ([1]; ADRA2A, other tracer 1μM)?
A: 1.14

Q: And the “NanoBRET Fold Response, other tracers/XAC (unmodified)” value ([1]; ADRA2B, other tracer 0.1μM)?
A: 4.34

Q: What about the “NanoBRET Fold Response, other tracers/XAC (unmodified)” value ([1]; ADRA2B, other tracer 1μM) of the same molecule?
A: 1.57

Q: What about the “NanoBRET Fold Response, other tracers/XAC (unmodified)” value ([1]; ADRA2C, other tracer 0.1μM) of the same molecule?
A: 1.33

Q: For `CCCn1c(=O)c2[nH]c(-c3ccc(OCC(=O)NCCN)cc3)nc2n(CCC)c1=O` [XAC, Xanthine amine congener, reference compound], which “Interaction verified via competitive displacement of tracer” value [1] is on record?
A: additional interactions

Q: Which “Interaction verified via competitive displacement of tracer” value [2] does the source give for `N#CNC(=NCCCOc1cccc(CN2CCCCC2)c1)NCCNC(=O)c1ccc(N)cc1` [Aminopotentidine] here?
A: verify additional interactions

Q: And the “Interaction verified via competitive displacement of tracer” value (Dopamine receptors)?
A: verify additional interactions

Q: What about the “Interaction verified via competitive displacement of tracer” value [1] of the same molecule?
A: verify additional interactions

Q: Which “NanoBRET Fold Response” value (ADRB3; [3]) does the source give for `Cc1ccc(O)c([C@H](CCN(C(C)C)C(C)C)c2ccccc2)c1` [Tolterodine (unmodified)] here?
A: 1.01

Q: And the “NanoBRET Fold Response” value (OPRK1; [3])?
A: 0.99

Q: What about the “NanoBRET Fold Response” value (OPRK1; [4]) of the same molecule?
A: 1.00

Q: What about the “NanoBRET Fold Response” value (ADRB1; [3]) of the same molecule?
A: 0.99

Q: What about the “NanoBRET Fold Response” value (ADRB1; [4]) of the same molecule?
A: 1.01

Q: And the “NanoBRET Fold Response” value (OPRM1; [3])?
A: 0.97

Q: What about the “NanoBRET Fold Response” value (OPRD1; [4]) of the same molecule?
A: 0.91

Q: What does the source list for `OCCOCCN1CCN(C2=Nc3ccccc3Sc3ccccc32)CC1` [Quetiapine (unmodified)]?
A: NanoBRET Fold Response (ADRB3; [5]): 1.11; NanoBRET Fold Response (ADRB3; [6]): 1.12; NanoBRET Fold Response (OPRK1; [5]): 1.76; NanoBRET Fold Response (OPRK1; [6]): 0.99; NanoBRET Fold Response (ADRB1; [5]): 1.33; NanoBRET Fold Response (ADRB1; [6]): 1.09; NanoBRET Fold Response (ADRB2; 0.1μM): 1.07; NanoBRET Fold Response (ADRB2; 1μM): 1.33; NanoBRET Fold Response (OPRM1; [5]): 1.29; NanoBRET Fold Response (OPRM1; [6]): 1.00; NanoBRET Fold Response (OPRD1; [5]): 1.31; NanoBRET Fold Response (OPRD1; [6]): 1.06
